Results as given in US20120046292A1, “[…] COMPOUND” (ASTELLAS PHARMA INC., priority 2009, published 2012).

Assays:
[1] = molecular target: T1, human DGAT1 (hDGAT1) (Homo sapiens, UniProt O75907); assay: DGAT1 inhibitory activity test (hDGAT1-expressing Sf9 cell microsome, [14C]oleoyl-CoA, FlashPlate); format: biochemical; conditions: test substance 1, 10, 100, 1000 nM, linear regression
T1 construct: made in house; host or cells: Sf9 insect cells (Bac-to-Bac baculovirus, pFastBac1); microsomal fraction
T1 sequence (O75907 1-488): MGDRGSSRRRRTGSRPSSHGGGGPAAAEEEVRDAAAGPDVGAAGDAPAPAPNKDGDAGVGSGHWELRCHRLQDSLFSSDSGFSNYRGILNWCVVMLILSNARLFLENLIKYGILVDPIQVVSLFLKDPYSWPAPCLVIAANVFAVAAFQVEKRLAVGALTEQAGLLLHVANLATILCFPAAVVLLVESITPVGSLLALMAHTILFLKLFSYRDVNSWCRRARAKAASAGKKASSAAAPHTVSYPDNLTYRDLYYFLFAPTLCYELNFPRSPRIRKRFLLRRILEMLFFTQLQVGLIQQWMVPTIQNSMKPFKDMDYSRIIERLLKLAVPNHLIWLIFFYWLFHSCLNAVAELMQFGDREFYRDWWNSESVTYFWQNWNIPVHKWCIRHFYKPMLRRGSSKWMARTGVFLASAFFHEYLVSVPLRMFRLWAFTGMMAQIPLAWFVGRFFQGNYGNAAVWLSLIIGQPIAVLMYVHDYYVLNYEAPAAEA
Description: (1) Production of Bacmid-hDGAT1
A base sequence encoding a human DGAT1 (hDGAT1) (1467 bases of CDS in Genbank Accession No. NM_012079) was cloned and ligated to pFastBac™1 (Invitrogen) to produce a pFastBac1-hDGAT1. From this plasmid, an engineered baculovirus liquid (Bacmid-hDGAT1) was prepared using a Bac-to-Bac (registered trademark) Baculovirus Expression System (Invitrogen).
(2) Preparation of Sf9 Cell-Derived DGAT1-Expressing Microsomal Fraction
Sf9 cells were seeded into a 225-cm^2 Flask Angled Neck (CORNING) to a confluency of 80%, and statically cultured in an incubator at 27° C. using an EX-CELL™ 420 INSECT SERUM-FREE MEDIUM (SAFC Biosciences, Inc.). After 24 hours, the culture medium was taken out, and a liquid obtained by diluting 1.67 mL of an engineered baculovirus medium (Bacmid-hDGAT1) with 3.33 mL of an EX-CELL™ 420 INSECT SERUM-FREE MEDIUM was added thereto, and the resultant was cultured under shaking in an incubator at 27° C. for 1 hour. Thereafter, 25 mL of an EX-CELL™ 420 INSECT SERUM-FREE MEDIUM was added thereto, followed by culturing in an incubator at 27° C. for 72 hours. The infected cells were harvested, diluted with 1.5 mL of a buffer A (40 mM phosphate buffer (pH 7.2) including 100 mM sucrose and 50 mM KCl) containing a Complete Protease Inhibitor Cocktail (Roche Diagnostics K. K.), and then subjected to sonication using a SONIFER 250 (BRANSON Ultrasonic Corp.). This suspension was centrifuged at 10000×g for 5 minutes and the supernatant was recovered. This supernatant was centrifuged at 100000×g for 60 minutes and the resulting precipitate was dissolved in 600 μL of a buffer A and then subjected to sonication again, to prepare a suspension. This suspension was taken as a hDGAT1-expressing Sf9 cell microsome.
(3) DGAT1 Activity Measurement
For the DGAT1 activity, a test substance in DMSO (final DMSO concentration 2%) in which 100 mM Tris-HCl (pH 8.0), 2 mM MgCl2, 0.01% BSA, a hDGAT1-expressing Sf9 cell microsome, 200 μM dioleoyl glycerol or dipalmitoyl glycerol, 8.9 μM [^14C] oleoyl-CoA, and 1.68% acetone were added to a phospholipid FlashPlate (PerkinElmer Life Science). The reaction was carried out at 30° C. for 60 minutes, and then twice the amount (100 μL), relative to the reaction liquid, of a mixture of isopropyl alcohol:0.1 M carbonate buffer (pH 9.0) at a ratio of 1:1 was added thereto to stop the reaction. The next day, the count was measured with a TopCount microplate scintillation counter (PerkinElmer Life Science).
The count without addition of the test substance was taken as a control (TG with addition of DMSO). The count without addition of the test substance and the microsome was taken as a Blank TG. The DGAT1 inhibitory rate of the test substance was calculated by the following calculation equation:
Inhibitory Rate (%)=(TG with addition of test substance−Blank TG)÷(TG with addition of DMSO−Blank TG)×100
The DGAT1 inhibitory rates were calculated when the concentrations of the test substance in the reaction liquid were 1, 10, 100, and 1000 nM. Linear regression was performed using the inhibitory rates obtained, and a test substance concentration (IC50) required to inhibit the DGAT1 activity by 50% was calculated by an SAS 8.2 software package (SAS Institute Japan, Ltd., Tokyo, Japan).

[2] = test system: male C57BL/6J mice; assay: Inhibitory action on increase in triglyceride (TG) by fat administration; format: in vivo; conditions: administration amount 0.3 mg/kg; fat (intralipid 20%, 10 mL/kg) orally 20 hours after dosing; plasma TG 2 hours after fat; control 0.5% methyl cellulose group
Description: 8- to 15-week male C57BL/6J mice were fasted for four hours, and the test substances were administered to the mice. The test substance was administered after suspending it in a 0.5% methyl cellulose solution. After 20 hours, fat (intralipid 20%, Terumo (Fresenius), 10 mL/kg) was orally administered thereto. Immediately before and after 2 hours from administration of the fat, blood was collected from the tail vein to obtain plasma. For measurement of the TG in plasma, a TG increase in the plasma by fat administration was calculated using a Triglyceride E Test Wako (Wako Pure Chemical Industries Ltd.). Using the TG increase in the plasma in a group to which 0.5% methyl cellulose had been administered as a control, the TG increase inhibitory rate when the test substance had been administered was determined.

[3] = test system: DIO mice; assay: Anti-obesity action in DIO mice; format: in vivo; conditions: oral, once per day, administration period 2 weeks, 1 mg/kg; high-fat diet C57BL/6J mice; solvent group weight increase = 100%
Description: High-fat diet formula (Research Diet D12492, 60 kcal % fat) were given to 9-week male C57BL/6J mice. For acclimatization of the mice, the solvent used in the test from the 4th week was administered thereto. From the 5th week, the test substance was orally administered once or twice daily. The test substance was administered after suspending it in a 0.5% methyl cellulose solution. Administration was performed repeatedly for 2 or 4 weeks, and variation in the weights due to the test substance administration was observed. By taking the increase in the weight in the group to which the solvent had been administered within a test period as 100%, the weight increase inhibitory rate of the test substance was calculated.

Row | SMILES | IC50 [1] | TG increase inhibitory rate [2] | weight increase inhibitory rate [3]
1 | CCOc1ccc(C(=O)NCCNC(=O)c2ccc(O[C@H]3CC[C@@H](C(=O)O)CC3)nc2)cc1Cl [Example 245] | 14 nM | – | –
2 | O=C(NCCNC(=O)c1cc(F)c(O[C@H]2CC[C@@H](C(=O)O)CC2)cc1F)c1ccc2ccccc2c1 [Example 454] | 1 nM | 106% | 93%
3 | O=C(NCCNC(=O)c1ccc(O[C@H]2CC[C@@H](C(=O)O)CC2)c(F)c1F)c1ccc(Cl)s1 [Example 490] | 3.8 nM | 92% | 98%
4 | CCOc1ccc(C(=O)NCCNC(=O)c2ccc(O[C@H]3CC[C@@H](C(=O)O)CC3)cc2)cc1 [Example 18] | 21 nM | – | –
5 | O=C(O)CC1CCC(c2ccc(C(=O)NCCNC(=O)c3ccc(Cl)cc3)cc2)CC1 (stereo not drawn) [Example 6, {4-[4-({2-[(4-chlorobenzoyl)amino]ethyl}carbamoyl)phenyl]cyclohexyl}acetic acid] | 20 nM | – | –
6 | O=C(NCCNC(=O)c1ccc(C2CC2)c(Cl)c1)c1ccc(O[C@H]2CC[C@@H](C(=O)O)CC2)c(F)c1 [Example 135] | 5.8 nM | – | –
7 | O=C(NCCNC(=O)c1ccc(F)c(C(F)(F)F)c1)c1ccc(O[C@H]2CC[C@@H](C(=O)O)CC2)cc1 [Example 82] | 9.9 nM | – | –
8 | O=C(NCCNC(=O)c1ccc(O[C@H]2CC[C@@H](C(=O)O)CC2)cc1F)c1ccc2ccccc2c1 [Example 169] | 2.7 nM | 75% | –
9 | O=C(NCCNC(=O)c1ccc(O[C@H]2CC[C@@H](C(=O)O)CC2)cc1F)c1cc2cc(F)ccc2s1 [Example 531] | 0.1 nM | – | –
10 | O=C(O)C[C@H]1CC[C@@H](Oc2cc(F)c(C(=O)NCCNC(=O)c3ccc4ccccc4c3)cc2F)CC1 [Example 571] | 1.6 nM | – | –
11 | O=C(NCCNC(=O)c1cc2cc(OC(F)(F)F)ccc2[nH]1)c1ccc(O[C@H]2CC[C@@H](C(=O)O)CC2)cc1 [Example 148] | 4.2 nM | – | –
12 | O=C(NCCNC(=O)c1c(F)cc(O[C@H]2CC[C@@H](C(=O)O)CC2)cc1F)c1ccc2ccccc2c1 [Example 299] | 6.7 nM | – | –
13 | O=C(NCCNC(=O)c1ccc(O[C@H]2CC[C@@H](C(=O)O)CC2)cc1)c1ccc(Oc2ccc(F)cc2)cc1 [Example 63] | 0.4 nM | – | –

Further lines, with some results ahead:

Row | IC50 [1] | SMILES | TG increase inhibitory rate [2] | weight increase inhibitory rate [3]
14 | 32 nM | O=C(O)CC1CCN(c2c(F)cc(C(=O)NCCNC(=O)c3sc4ccccc4c3Cl)cc2F)CC1 [Example 604] | – | –
15 | 5.2 nM | O=C(NCCNC(=O)N1CCC(c2ccc(Cl)cc2)CC1)c1ccc(O[C@H]2CC[C@@H](C(=O)O)CC2)c(F)c1F [Example 480] | – | –
16 | 2.3 nM | O=C(NCCNC(=O)c1ccc(C2CC2)cc1)c1ccc(O[C@H]2CC[C@@H](C(=O)O)CC2)cc1 [Example 79] | 79% | –
17 | 5.3 nM | Cc1cc(C(=O)NCCNC(=O)c2ccc(O[C@H]3CC[C@@H](C(=O)O)CC3)cc2)ccc1Cl [Example 106] | – | –
18 | 14 nM | O=C(NCCNC(=O)c1ccc(O[C@H]2CC[C@@H](C(=O)O)CC2)cc1)Nc1ccccc1Cl [Example 56] | – | –
19 | 5.6 nM | O=C(NCCNC(=O)c1ccc(O[C@H]2CC[C@@H](C(=O)O)CC2)c(F)c1F)c1ccc2ccccc2c1 [Example 300] | – | –
20 | 2.1 nM | CCCCCC12CCC(C(=O)NCCNC(=O)c3ccc(O[C@H]4CC[C@@H](C(=O)O)CC4)cc3)(CC1)CC2 [Example 20] | – | –
21 | 5.2 nM | O=C(NCCNC(=O)c1ccc2ccccc2c1)c1ccc(O[C@H]2CC[C@@H](C(=O)O)CC2)cc1 [Example 83] | – | –
22 | 1.7 nM | O=C(NCCNC(=O)c1sc2ccccc2c1Cl)c1ccc(O[C@H]2CC[C@@H](C(=O)O)CC2)cc1 [Example 469] | 109% | –
23 | 8.1 nM | Cc1cc(O[C@H]2CC[C@@H](C(=O)O)CC2)ccc1C(=O)NCCNC(=O)c1ccc(C(F)(F)F)cc1 [Example 187] | – | –
